Laboratory results reported in article PMC7153899, “Anti-hyperglycemic activity of myricetin, through inhibition of DPP-4 and enhanced GLP-1 levels, is attenuated by co-ingestion with lectin-rich protein” (PLoS ONE, 2020).

Molecular target: T1, Dipeptidyl peptidase-4 (DPP-4) (Homo sapiens, UniProt P27487)
T1 construct: gene DPP4; recombinant DPP-4 (human)
Test: colorimetric enzyme assay with recombinant human DPP-4, gly-pro p-nitroanilide substrate, absorbance […] nm
Type: biochemical

T1 sequence (P27487 39-766): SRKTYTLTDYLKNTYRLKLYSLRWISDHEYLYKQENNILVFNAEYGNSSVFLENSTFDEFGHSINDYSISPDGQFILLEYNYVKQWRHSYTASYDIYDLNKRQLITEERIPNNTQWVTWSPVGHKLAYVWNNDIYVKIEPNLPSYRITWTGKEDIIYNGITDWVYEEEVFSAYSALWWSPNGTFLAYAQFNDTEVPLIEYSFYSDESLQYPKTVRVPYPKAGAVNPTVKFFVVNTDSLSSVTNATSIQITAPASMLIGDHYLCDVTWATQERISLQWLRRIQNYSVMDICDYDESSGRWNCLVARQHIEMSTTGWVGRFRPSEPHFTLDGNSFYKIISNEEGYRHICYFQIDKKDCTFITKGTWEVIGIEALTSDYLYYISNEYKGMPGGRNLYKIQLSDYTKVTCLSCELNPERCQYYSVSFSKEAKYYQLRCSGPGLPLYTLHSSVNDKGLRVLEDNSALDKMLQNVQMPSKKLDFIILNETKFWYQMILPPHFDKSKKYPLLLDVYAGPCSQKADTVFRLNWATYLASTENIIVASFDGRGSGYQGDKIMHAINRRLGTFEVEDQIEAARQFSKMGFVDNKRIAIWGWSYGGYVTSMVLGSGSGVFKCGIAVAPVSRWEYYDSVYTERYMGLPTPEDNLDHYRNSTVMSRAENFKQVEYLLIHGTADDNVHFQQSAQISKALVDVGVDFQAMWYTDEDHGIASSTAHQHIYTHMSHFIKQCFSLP

## O=c1c(O)c(-c2cc(O)c(O)c(O)c2)oc2cc(O)cc(O)c12 [myricetin]
  IC50: 4.8 ± 0.36 µM
